Numbers after ± are expanded uncertainties.
Conditions: Liquid, Drop weight

With `O=C=O` [carbon dioxide] + O the interfacial tension (298.15 K, 8380 kPa) was 25.65 ± 0.42 mN/m, the interfacial tension (298.15 K, 10440 kPa) was 25.15 ± 0.28 mN/m and the interfacial tension (298.15 K, 13890 kPa) was 24.85 ± 0.29 mN/m. It also gave an interfacial tension (298.15 K, 17340 kPa) of 24.9 ± 0.3 mN/m, an interfacial tension (298.15 K, 20790 kPa) of 25 ± 1 mN/m and an interfacial tension (313.15 K, 8380 kPa) of 22.23 ± 0.58 mN/m. For the same molecule, the interfacial tension (313.15 K, 10440 kPa) was 22.16 ± 0.6 mN/m, the interfacial tension (313.15 K, 13890 kPa) was 23.33 ± 0.46 mN/m and the interfacial tension (313.15 K, 17340 kPa) was 23.41 ± 0.46 mN/m. For the same molecule, the interfacial tension (313.15 K, 20790 kPa) was 25.07 ± 0.53 mN/m, the interfacial tension (323.15 K, 10440 kPa) was 23.05 ± 0.57 mN/m and the interfacial tension (323.15 K, 13890 kPa) was 22.74 ± 0.68 mN/m. The interfacial tension (323.15 K, 17340 kPa) was 24.27 ± 0.78 mN/m, the interfacial tension (323.15 K, 20790 kPa) was 23.5 ± 0.4 mN/m and the interfacial tension (333.15 K, 13890 kPa) was 23.36 ± 0.51 mN/m. It also gave an interfacial tension (333.15 K, 17340 kPa) of 23.58 ± 0.69 mN/m and an interfacial tension (333.15 K, 20790 kPa) of 22.8 ± 0.6 mN/m.

Source: the NIST ThermoML archive (doi:10.1021/je200302h)
